Reference: patent publication US20220388964A1 (HiberCell, Inc., priority 2019, published 2022)

Molecular target: GCN2 (Homo sapiens, UniProt Q9P2K8)
Test: TR-FRET biochemical assay for inhibition of GCN2 (Example 106, for Example 1-4BB)
Settings: Table 9

Sequence of GCN2 (Q9P2K8 whole entry): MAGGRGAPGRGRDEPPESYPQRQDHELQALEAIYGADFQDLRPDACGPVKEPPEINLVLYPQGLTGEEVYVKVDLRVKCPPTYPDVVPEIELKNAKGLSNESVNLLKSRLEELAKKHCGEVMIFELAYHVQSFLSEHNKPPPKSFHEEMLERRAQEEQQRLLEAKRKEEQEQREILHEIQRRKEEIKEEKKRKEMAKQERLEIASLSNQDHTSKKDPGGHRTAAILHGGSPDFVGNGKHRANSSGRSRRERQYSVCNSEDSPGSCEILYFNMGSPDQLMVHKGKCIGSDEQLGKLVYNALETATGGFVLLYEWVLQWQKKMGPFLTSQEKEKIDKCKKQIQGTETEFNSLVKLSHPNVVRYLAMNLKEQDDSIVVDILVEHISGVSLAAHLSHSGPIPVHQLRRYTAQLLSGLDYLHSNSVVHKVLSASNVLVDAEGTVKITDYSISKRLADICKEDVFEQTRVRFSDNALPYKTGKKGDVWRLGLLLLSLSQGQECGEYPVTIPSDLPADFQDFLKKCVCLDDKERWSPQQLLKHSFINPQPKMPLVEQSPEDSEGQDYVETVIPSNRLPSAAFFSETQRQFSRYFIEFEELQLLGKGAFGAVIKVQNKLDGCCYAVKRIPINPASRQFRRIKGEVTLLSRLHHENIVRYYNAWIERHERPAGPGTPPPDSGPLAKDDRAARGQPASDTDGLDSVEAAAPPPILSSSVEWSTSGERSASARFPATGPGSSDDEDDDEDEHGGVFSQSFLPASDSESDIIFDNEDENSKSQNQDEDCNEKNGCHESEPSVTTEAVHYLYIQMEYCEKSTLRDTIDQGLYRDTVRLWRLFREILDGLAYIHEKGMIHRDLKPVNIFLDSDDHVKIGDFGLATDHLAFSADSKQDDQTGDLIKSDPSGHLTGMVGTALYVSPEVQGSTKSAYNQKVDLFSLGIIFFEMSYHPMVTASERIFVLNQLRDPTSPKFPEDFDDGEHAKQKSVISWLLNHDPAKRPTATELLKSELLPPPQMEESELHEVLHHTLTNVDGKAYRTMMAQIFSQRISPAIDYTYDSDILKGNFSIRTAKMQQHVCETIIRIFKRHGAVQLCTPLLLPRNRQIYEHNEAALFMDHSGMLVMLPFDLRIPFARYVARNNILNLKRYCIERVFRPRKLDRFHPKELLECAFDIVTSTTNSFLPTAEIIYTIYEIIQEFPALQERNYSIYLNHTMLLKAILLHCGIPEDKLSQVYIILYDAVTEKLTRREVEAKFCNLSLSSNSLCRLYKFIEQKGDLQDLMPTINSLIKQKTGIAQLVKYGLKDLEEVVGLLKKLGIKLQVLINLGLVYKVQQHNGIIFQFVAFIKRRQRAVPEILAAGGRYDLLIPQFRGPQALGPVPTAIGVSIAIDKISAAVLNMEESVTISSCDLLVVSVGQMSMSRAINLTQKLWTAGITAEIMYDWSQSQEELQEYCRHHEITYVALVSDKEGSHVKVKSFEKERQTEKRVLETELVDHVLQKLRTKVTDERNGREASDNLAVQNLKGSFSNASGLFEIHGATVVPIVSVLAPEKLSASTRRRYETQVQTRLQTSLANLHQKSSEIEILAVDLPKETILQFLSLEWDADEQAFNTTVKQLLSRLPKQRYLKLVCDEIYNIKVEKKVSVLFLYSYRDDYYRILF

SMILES | IC50
COc1ncc(Cl)cc1S(=O)(=O)Nc1ccc(F)c(-c2ccc3c(C(=O)NC4COC4)n[nH]c3c2F)c1F [Example 3B, 6-(3-((5-chloro-2-methoxy-pyridine)-3-sulfonamido)-2,6-difluorophenyl)-7-fluoro-N-(oxetan-3-yl)-1H-indazole-3-carboxamide] | 2500 to 10000 nM
Cc1ncc(F)cc1S(=O)(=O)Nc1ccc(F)c(-c2ccc3c(C(N)=O)n[nH]c3c2F)c1F [Example 3BA, 6-(2,6-difluoro-3-((5-fluoro-2-methylpyridine)-3-sulfon-amido)phenyl)-7-fluoro-1H-indazole-3-carboxamide] | < 500 nM
COc1ncc(Cl)cc1S(=O)(=O)Nc1cc(F)cc(-c2ccc3c(C(=O)NCCCN(C)C)n[nH]c3c2F)c1F [Example 3BB, 6-(3-((5-chloro-2-methoxy-pyridine)-3-sulfonamido)-2,5-difluorophenyl)-N-(3-(dimethylamino)propyl)-7-fluoro-1H-indazole-3-carboxamide] | < 500 nM
COc1ncc(Cl)cc1S(=O)(=O)Nc1cccc(-c2cc3[nH]nc(C(=O)NCCCO)c3cn2)c1F [Example 3BC, 6-(3-((5-chloro-2-methoxy-pyridine)-3-sulfonamido)-2-fluorophenyl)-N-(3-hydroxy-propyl)-1H-pyrazolo[4,3-c]pyridine-3-carboxamide] | < 500 nM
COc1ncc(Cl)cc1S(=O)(=O)Nc1cccc(-c2cc3[nH]nc(C(N)=O)c3cn2)c1F [Example 3BD, 6-(3-((5-chloro-2-methoxy-pyridine)-3-sulfonamido)-2-fluorophenyl)-1H-pyrazolo-[4,3-c]pyridine-3-carboxamide] | < 500 nM
COc1ncc(F)cc1S(=O)(=O)Nc1ccc(F)c(-c2ccc3c(C(=O)NCC[C@H](O)CO)n[nH]c3c2F)c1F [Example 3BE, 6-(2,6-difluoro-3-((5-fluoro-2-methoxypyridine)-3-sulfonamido)phenyl)-N-((S)-3,4-dihydroxybutyl)-7-fluoro-1H-indazole-3-carboxamide] | < 500 nM
COc1ncc(F)cc1S(=O)(=O)Nc1ccc(F)c(-c2ccc3c(C(=O)NCC[C@@H](O)CO)n[nH]c3c2F)c1F [Example 3BF, 6-(2,6-difluoro-3-((5-fluoro-2-methoxypyridine)-3-sulfonamido)phenyl)-N-((R)-3,4-dihydroxybutyl)-7-fluoro-1H-indazole-3-carboxamide] | < 500 nM
COc1ncc(F)cc1S(=O)(=O)Nc1cccc(-c2ccc3c(C(=O)NCC[C@H](O)CO)n[nH]c3c2F)c1F [Example 3BG, 6-(2-fluoro-3-((5-fluoro-2-methoxypyridine)-3-sulfonamido)phenyl)-N-((S)-3,4-dihydroxybutyl)-7-fluoro-1H-indazole-3-carboxamide] | < 500 nM
COc1ncc(F)cc1S(=O)(=O)Nc1cccc(-c2ccc3c(C(=O)NCC[C@@H](O)CO)n[nH]c3c2F)c1F [Example 3BH, 6-(2-fluoro-3-((5-fluoro-2-methoxypyridine)-3-sulfonamido)phenyl)-N-((R)-3,4-dihydroxybutyl)-7-fluoro-1H-indazole-3-carboxamide] | 500 to 2500 nM
COc1ncccc1S(=O)(=O)Nc1ccc(F)c(-c2ccc3c(C(=O)NCCCO)n[nH]c3c2F)c1F [Example 3BI, 6-(2,6-difluoro-3-((2-methoxypyridine)-3-sulfonamido)phenyl)-7-fluoro-N-(3-hydroxypropyl)-1H-indazole-3-carboxamide] | 500 to 2500 nM
COc1ncccc1S(=O)(=O)Nc1ccc(F)c(-c2ccc3c(C(N)=O)n[nH]c3c2F)c1F [Example 3BJ, 6-(2,6-difluoro-3-((2-methoxypyridine)-3-sulfonamido)phenyl)-7-fluoro-1H-indazole-3-carboxamide] | 500 to 2500 nM
COc1ncc(F)cc1S(=O)(=O)Nc1cc(F)cc(-c2ccc3c(C(=O)NCCCN(C)C)n[nH]c3c2F)c1F [Example 3BK, 6-(3-((5-fluoro-2-methoxy-pyridine)-3-sulfonamido)-2,5-difluorophenyl)-N-(3-(dimethylamino)propyl)-7-fluoro-1H-indazole-3-carboxamide] | < 500 nM
COc1ncc(Cl)cc1S(=O)(=O)Nc1cc(F)cc(-c2ccc3c(C(=O)N[C@@H]4CCN(C)C4)n[nH]c3c2F)c1F [Example 3BL, 6-(3-((5-chloro-2-methoxy-pyridine)-3-sulfonamido)-2,5-difluorophenyl)-7-fluoro-N-((R)-1-methylpyrrolidin-3-yl)-1H-indazole-3-carboxamide] | < 500 nM
COc1ncc(Cl)cc1S(=O)(=O)Nc1cc(F)cc(-c2ccc3c(C(=O)N[C@H]4CCN(C)C4)n[nH]c3c2F)c1F [Example 3BM, 6-(3-((5-chloro-2-methoxy-pyridine)-3-sulfonamido)-2,5-difluorophenyl)-7-fluoro-N-((S)-1-methylpyrrolidin-3-yl)-1H-indazole-3-carboxamide] | < 500 nM
COc1ncc(F)cc1S(=O)(=O)Nc1ccc(F)c(-c2ccc3c(C(=O)Nc4cnoc4)n[nH]c3c2F)c1F [Example 3BN, 6-(2,6-difluoro-3-((5-fluoro-2-methoxypyridine)-3-sulfonamido)phenyl)-7-fluoro-N-(isoxazol-4-yl)-1H-indazole-3-carboxamide] | < 500 nM
COc1ncc(F)cc1S(=O)(=O)Nc1ccc(F)c(-c2ccc3c(C(=O)Nc4cn[nH]c4)n[nH]c3c2F)c1F [Example 3BO, 6-(2,6-difluoro-3-((5-fluoro-2-methoxypyridine)-3-sulfonamido)phenyl)-7-fluoro-N-(1H-pyrazol-4-yl)-1H-indazole-3-carboxamide] | < 500 nM
COc1ncc(F)cc1S(=O)(=O)Nc1ccc(F)c(-c2ccc3c(C(=O)Nc4ccc(=O)n(C)c4)n[nH]c3c2F)c1F [Example 3BP, 6-(2,6-difluoro-3-((5-fluoro-2-methoxypyridine)-3-sulfonamido)phenyl)-7-fluoro-N-(1-methyl-6-oxo-1,6-dihydropyridin-3-yl)-1H-indazole-3-carboxamide] | < 500 nM
COc1ncc(Cl)cc1S(=O)(=O)Nc1ccc(F)c(-c2ccc3c(C(=O)Nc4cnn(C)c4)n[nH]c3c2F)c1F [Example 3BQ, 6-(3-((5-chloro-2-methoxy-pyridine)-3-sulfonamido)-2,6-difluorophenyl)-7-fluoro-N-(1-methyl-1H-pyrazol-4-yl)-1H-indazole-3-carboxamide] | 500 to 2500 nM
COc1ncc(F)cc1S(=O)(=O)Nc1ccc(C#N)c(-c2ccc3c(C(N)=O)n[nH]c3c2F)c1F [Example 3BR, 6-(6-cyano-2-fluoro-3-((5-fluoro-2-methoxypyridine)-3-sulfonamido)phenyl)-7-fluoro-1H-indazole-3-carboxamide] | 500 to 2500 nM
COc1ncc(F)cc1S(=O)(=O)Nc1cc(F)cc(-c2ccc3c(C(=O)N[C@@H]4CCN(C)C4)n[nH]c3c2F)c1F [Example 3BS, 6-(3-((5-fluoro-2-methoxy-pyridine)-3-sulfonamido)-2,5-difluorophenyl)-7-fluoro-N-((R)-1-methylpyrrolidin-3-yl)-1H-indazole-3-carboxamide] | < 500 nM
COc1ncc(F)cc1S(=O)(=O)Nc1cc(F)cc(-c2ccc3c(C(=O)N[C@H]4CCN(C)C4)n[nH]c3c2F)c1F [Example 3BT, 6-(3-((5-fluoro-2-methoxy-pyridine)-3-sulfonamido)-2,5-difluorophenyl)-7-fluoro-N-((S)-1-methylpyrrolidin-3-yl)-1H-indazole-3-carboxamide] | 500 to 2500 nM
COc1ncc(C#N)cc1S(=O)(=O)Nc1ccc(F)c(-c2ccc3c(C(=O)NCCCN(C)C)n[nH]c3c2F)c1F [Example 3BU, 6-(3-((5-cyano-2-methoxy-pyridine)-3-sulfonamido)-2,6-difluorophenyl)-N-(3-(dimethylamino)propyl)-7-fluoro-1H-indazole-3-carboxamide] | 500 to 2500 nM
COc1ncc(C#N)cc1S(=O)(=O)Nc1cc(F)cc(-c2ccc3c(-c4ncc[nH]4)n[nH]c3c2F)c1F [Example 3BV, 5-cyano-N-(2,5-difluoro-3-(7-fluoro-3-(1H-imidazol-2-yl)-1H-indazol-6-yl)phenyl)-2-methoxypyridine-3-sulfonamide] | < 500 nM
COc1ncc(F)cc1S(=O)(=O)Nc1ccc(F)c(-c2ccc3c(C(=O)Nc4cccn(C)c4=O)n[nH]c3c2F)c1F [Example 3BW, 6-(2,6-difluoro-3-((5-fluoro-2-methoxypyridine)-3-sulfonamido)phenyl)-7-fluoro-N-(1-methyl-2-oxo-1,2-dihydropyridin-3-yl)-1H-indazole-3-carboxamide] | 2500 to 10000 nM
COc1ncc(F)cc1S(=O)(=O)Nc1ccc(F)c(-c2ccc3c(C(=O)Nc4ccc(C)nc4)n[nH]c3c2F)c1F [Example 3BX, 6-(2,6-difluoro-3-((5-fluoro-2-methoxypyridine)-3-sulfonamido)phenyl)-7-fluoro-N-(6-methylpyridin-3-yl)-1H-indazole-3-carboxamide] | < 500 nM
Cc1nc(C)c(S(=O)(=O)Nc2cc(F)cc(-c3ccc4c(-c5ncc[nH]5)n[nH]c4c3F)c2F)s1 [Example 3BY, N-(2,5-difluoro-3-(7-fluoro-3-(1H-imidazol-2-yl)-1H-indazol-6-yl)phenyl)-2,4-dimethylthiazole-5-sulfonamide] | < 500 nM
COc1nscc1S(=O)(=O)Nc1cc(F)cc(-c2ccc3c(-c4ncc[nH]4)n[nH]c3c2F)c1F [Example 3BZ, N-(2,5-difluoro-3-(7-fluoro-3-(1H-imidazol-2-yl)-1H-indazol-6-yl)phenyl)-3-methoxyisothiazole-4-sulfonamide] | < 500 nM
COc1ncc(Cl)cc1S(=O)(=O)Nc1cc(F)cc(-c2ccc3c(-c4ncc[nH]4)n[nH]c3c2F)c1F [Example 3C, 5-chloro-N-(2,5-difluoro-3-(7-fluoro-3-(1H-imidazol-2-yl)-1H-indazol-6-yl)phenyl)-2-methoxypyridine-3-sulfonamide] | < 500 nM
COc1ncc(F)cc1S(=O)(=O)Nc1ccc(C#N)c(-c2ccc3c(C(=O)NCCCO)n[nH]c3c2F)c1F [Example 3CA, 6-(6-cyano-2-fluoro-3-((5-fluoro-2-methoxypyridine)-3-sulfonamido)phenyl)-7-fluoro-N-(3-hydroxypropyl)-1H-indazole-3-carboxamide] | < 500 nM
